Test results as given in US10426758B2, “Sibiriline derivatives for use for preventing and/or treating disorders associated with cellular necroptosis” (Institut National de la Sante et de la Recherche Medicale …, priority 2015, dated 2019).

How the values were obtained:
L929 cells = assay: Anti-necroptotic effect, L929 cells, TNF + zVAD, FACS of propidium iodide-stained nuclei; type: cell-based
Protocol: L929 cells, L929AsFas cells, Jurkat FADD-deficient cells (Jurkat FADD^−/−), U937 cells are pretreated for 1 h with increased concentrations of Sib (0, 5, 10, 20 μM) and then treated respectively with TNF-α (10 ng/ml)+zVAD (20 μM), FasL (200 ng/ml)+zVAD (20 μM), TNF-α (10 ng/ml), TRAIL (200 ng/ml)+zVAD (30 μM) or TRAIL (200 ng/ml)+zVAD (30 μM)+CHX (1 μg/ml). % of cell death is determined after 24 h and calculated by a FACS analysis of Propidium Iodide-stained nuclei. In each case, the EC50 is determined as well as the % of rescue from cell death.

[1] = molecular target: ABL1(H396P)-nonphosphorylated (Homo sapiens, UniProt P00519, H396P); assay: Competition binding assay for kinase targets of Sib (456 kinases); settings: remaining kinase on the matrix after competition, read-out: Percent Control (%)
Protocol: (§1) The assay is performed by combining three components: DNA-tagged kinase (a total of 456 kinases were tested); immobilized ligand; and a test compound (here Sib). The ability of Sib to compete with the immobilized ligand is measured via quantitative PCR of the DNA tag.

AURKC = molecular target: T1, AURKC (Homo sapiens, UniProt Q9UQB9); assay: as above; settings: remaining kinase on the matrix after competition, read-out: Percent Control (%)
T1 sequence (Q9UQB9 1-309): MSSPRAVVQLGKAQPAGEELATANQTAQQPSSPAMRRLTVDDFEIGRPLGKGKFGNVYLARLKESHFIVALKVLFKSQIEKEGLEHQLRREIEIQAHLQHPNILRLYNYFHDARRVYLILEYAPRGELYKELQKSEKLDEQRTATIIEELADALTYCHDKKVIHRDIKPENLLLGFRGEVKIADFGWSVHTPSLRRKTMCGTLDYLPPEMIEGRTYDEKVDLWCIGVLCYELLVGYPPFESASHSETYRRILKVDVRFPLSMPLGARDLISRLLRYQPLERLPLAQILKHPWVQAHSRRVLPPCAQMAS
Protocol: as §1

DRAK2 = molecular target: T2, DRAK2 (Homo sapiens, UniProt O94768); assay: as above; settings: remaining kinase on the matrix after competition, read-out: Percent Control (%)
T2 sequence (O94768 1-372): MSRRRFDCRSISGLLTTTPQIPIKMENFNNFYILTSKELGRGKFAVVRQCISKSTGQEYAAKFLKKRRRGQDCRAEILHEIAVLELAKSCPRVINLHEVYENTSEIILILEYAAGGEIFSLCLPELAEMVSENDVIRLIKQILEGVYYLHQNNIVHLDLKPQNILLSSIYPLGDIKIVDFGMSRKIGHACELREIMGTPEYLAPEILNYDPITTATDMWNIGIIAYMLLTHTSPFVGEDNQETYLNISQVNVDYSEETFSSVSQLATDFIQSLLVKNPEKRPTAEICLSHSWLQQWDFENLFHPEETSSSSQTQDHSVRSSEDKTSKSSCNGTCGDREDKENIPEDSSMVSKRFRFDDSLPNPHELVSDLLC
Protocol: as §1

EPHB6 = molecular target: T3, EPHB6 (Homo sapiens, UniProt O15197); assay: as above; settings: remaining kinase on the matrix after competition, read-out: Percent Control (%)
T3 sequence (O15197 32-1021): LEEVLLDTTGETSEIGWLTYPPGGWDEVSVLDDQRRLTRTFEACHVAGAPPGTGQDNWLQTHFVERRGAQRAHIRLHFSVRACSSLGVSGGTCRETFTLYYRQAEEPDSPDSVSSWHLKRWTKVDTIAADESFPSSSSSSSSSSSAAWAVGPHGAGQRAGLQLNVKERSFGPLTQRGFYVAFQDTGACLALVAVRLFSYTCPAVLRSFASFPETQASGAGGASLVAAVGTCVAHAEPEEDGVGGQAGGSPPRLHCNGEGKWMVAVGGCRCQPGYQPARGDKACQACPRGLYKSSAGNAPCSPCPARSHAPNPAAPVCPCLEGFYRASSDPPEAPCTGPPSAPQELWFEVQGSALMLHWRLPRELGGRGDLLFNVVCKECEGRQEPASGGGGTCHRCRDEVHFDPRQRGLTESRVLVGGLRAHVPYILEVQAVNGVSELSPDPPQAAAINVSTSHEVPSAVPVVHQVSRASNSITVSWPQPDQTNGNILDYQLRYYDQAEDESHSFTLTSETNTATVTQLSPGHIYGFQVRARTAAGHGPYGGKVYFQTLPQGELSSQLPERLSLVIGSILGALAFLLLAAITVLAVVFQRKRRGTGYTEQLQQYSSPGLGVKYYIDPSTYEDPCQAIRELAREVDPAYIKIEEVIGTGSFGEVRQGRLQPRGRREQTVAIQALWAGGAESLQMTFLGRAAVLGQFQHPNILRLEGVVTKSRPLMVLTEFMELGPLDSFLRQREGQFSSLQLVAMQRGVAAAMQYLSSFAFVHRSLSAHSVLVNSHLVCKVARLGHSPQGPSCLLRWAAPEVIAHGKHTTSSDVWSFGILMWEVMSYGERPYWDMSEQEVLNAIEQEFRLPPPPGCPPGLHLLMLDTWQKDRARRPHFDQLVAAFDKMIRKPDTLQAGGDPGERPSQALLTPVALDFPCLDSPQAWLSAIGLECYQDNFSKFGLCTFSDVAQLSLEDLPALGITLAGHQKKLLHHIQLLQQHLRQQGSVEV
Protocol: as §1

[2] = molecular target: T4, JAK2 (JH1domain-catalytic) (Homo sapiens, UniProt O60674); assay: as above; settings: remaining kinase on the matrix after competition, read-out: Percent Control (%)
T4 construct: JAK2(JH1domain-catalytic)
T4 sequence (O60674 849-1124 limits assumed): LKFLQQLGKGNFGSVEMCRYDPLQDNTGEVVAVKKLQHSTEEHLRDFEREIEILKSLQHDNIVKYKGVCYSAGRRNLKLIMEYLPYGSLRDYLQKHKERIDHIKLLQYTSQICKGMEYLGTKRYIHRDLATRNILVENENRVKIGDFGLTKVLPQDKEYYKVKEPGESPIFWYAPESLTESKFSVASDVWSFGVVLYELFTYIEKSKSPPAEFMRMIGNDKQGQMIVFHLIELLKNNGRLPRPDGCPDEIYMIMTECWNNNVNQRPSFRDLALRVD
Protocol: as §1

KIT = KIT (Homo sapiens, UniProt P10721); assay: as above; settings: remaining kinase on the matrix after competition, read-out: Percent Control (%)
Chain of KIT (P10721 26-976): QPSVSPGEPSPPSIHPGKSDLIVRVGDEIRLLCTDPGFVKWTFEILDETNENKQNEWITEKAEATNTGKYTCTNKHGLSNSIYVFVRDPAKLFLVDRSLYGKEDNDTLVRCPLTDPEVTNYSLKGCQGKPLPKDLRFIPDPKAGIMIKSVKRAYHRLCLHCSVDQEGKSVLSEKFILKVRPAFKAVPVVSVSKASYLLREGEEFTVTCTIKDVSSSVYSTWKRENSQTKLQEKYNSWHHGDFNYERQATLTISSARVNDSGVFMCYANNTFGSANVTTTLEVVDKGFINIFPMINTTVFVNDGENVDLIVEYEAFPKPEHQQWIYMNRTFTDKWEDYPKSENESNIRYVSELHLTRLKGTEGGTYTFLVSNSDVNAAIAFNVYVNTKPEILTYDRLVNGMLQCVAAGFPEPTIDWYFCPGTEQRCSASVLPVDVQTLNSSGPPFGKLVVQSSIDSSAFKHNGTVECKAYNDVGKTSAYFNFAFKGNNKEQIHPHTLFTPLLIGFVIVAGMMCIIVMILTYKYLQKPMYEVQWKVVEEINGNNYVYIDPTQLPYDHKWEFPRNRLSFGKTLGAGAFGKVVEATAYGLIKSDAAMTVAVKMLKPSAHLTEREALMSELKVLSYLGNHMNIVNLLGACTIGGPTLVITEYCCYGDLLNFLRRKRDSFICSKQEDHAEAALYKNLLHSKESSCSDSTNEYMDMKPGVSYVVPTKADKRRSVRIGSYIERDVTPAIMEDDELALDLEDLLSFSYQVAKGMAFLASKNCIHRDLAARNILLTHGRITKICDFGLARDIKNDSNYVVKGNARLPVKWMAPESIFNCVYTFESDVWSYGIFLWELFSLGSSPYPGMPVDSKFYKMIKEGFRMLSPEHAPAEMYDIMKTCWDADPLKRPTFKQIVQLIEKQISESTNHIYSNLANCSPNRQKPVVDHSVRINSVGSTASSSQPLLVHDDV
Protocol: as §1

KIT(V559D) = KIT(V559D) (Homo sapiens, UniProt P10721, V559D); assay: as above; settings: remaining kinase on the matrix after competition, read-out: Percent Control (%)
Chain of KIT(V559D) (P10721 26-976 V559D): as the sequence (P10721 26-976) above, with V534D counted along it
Protocol: as §1

PDGFRB = PDGFRB (Homo sapiens, UniProt P09619); assay: as above; settings: remaining kinase on the matrix after competition, read-out: Percent Control (%)
Chain of PDGFRB (P09619 33-1106): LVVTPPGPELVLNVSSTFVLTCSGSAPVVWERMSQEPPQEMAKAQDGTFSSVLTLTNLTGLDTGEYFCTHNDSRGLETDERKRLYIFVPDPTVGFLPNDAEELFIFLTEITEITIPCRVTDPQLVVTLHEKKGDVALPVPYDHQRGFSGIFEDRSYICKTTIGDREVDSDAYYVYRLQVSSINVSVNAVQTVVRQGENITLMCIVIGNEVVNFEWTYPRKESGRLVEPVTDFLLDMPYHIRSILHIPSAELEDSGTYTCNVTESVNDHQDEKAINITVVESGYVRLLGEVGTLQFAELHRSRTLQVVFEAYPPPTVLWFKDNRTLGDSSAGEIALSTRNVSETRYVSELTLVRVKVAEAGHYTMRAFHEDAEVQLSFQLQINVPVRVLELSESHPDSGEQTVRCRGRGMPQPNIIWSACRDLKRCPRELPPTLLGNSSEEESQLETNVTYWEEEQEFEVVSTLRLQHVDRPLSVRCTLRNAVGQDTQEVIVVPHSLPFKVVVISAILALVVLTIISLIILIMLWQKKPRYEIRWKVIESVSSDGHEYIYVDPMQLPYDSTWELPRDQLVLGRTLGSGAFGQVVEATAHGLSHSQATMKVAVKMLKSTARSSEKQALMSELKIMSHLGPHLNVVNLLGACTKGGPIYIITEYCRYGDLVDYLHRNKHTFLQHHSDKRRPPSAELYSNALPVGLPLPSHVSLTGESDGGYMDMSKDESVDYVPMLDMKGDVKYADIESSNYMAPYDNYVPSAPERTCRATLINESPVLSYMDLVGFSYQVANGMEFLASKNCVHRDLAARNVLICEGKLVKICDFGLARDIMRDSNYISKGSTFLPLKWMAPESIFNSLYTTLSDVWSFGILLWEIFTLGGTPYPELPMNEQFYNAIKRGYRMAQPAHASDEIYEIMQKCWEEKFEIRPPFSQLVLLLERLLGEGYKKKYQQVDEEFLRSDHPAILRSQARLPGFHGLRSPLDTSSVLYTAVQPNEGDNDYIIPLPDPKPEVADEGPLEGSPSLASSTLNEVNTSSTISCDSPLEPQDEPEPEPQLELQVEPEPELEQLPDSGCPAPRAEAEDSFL
Protocol: as §1

For `Oc1ccc(-c2cc3cccnc3[nH]2)cc1` [compound 2, 4-(1H-pyrrolo[2,3-b]pyridin-2-yl)phenol], the EC50 (L929 cells; Mus musculus, 1 h pretreatment, cell death after 24 h) was 3 µM, the “% Rescue” value (L929 cells; rescue from cell death, 24 h) was 80% and the remaining binding at 10 µM [1] was 1%. For the same compound, the remaining binding at 10 µM (AURKC) was 0.7%, the remaining binding at 10 µM (DRAK2) was 0.75% and the remaining binding at 10 µM (EPHB6) was 0.65%. The remaining binding at 10 µM [2] was 0.2%, the remaining binding at 10 µM (KIT) was 0.8% and the remaining binding at 10 µM (KIT(V559D)) was 0.4%. It also gave a remaining binding at 10 µM (PDGFRB) of 0.75%.
